Results as given in patent US20260103465A1, “GLYCOGEN SYNTHASE KINASE 3 INHIBITORS AND USES THEREOF” (The Broad Institute, Inc., priority 2023, published 2026).
Read-outs that look alike come from different tables or passages of the source. Blank lines part the entries; values can stand above or below the compound they belong to.

Columns and labels:
[1] = target: T1, GSK3b (GST-full length GSK3b) (Homo sapiens, UniProt P49841); assay: GSK3b TR-FRET kinase inhibition assay; assay type: biochemical
T1 construct: GST-full length GSK3b: [SignalChem G08-9G]; purchased SignalChem G08-9G
T1 sequence (P49841 whole entry): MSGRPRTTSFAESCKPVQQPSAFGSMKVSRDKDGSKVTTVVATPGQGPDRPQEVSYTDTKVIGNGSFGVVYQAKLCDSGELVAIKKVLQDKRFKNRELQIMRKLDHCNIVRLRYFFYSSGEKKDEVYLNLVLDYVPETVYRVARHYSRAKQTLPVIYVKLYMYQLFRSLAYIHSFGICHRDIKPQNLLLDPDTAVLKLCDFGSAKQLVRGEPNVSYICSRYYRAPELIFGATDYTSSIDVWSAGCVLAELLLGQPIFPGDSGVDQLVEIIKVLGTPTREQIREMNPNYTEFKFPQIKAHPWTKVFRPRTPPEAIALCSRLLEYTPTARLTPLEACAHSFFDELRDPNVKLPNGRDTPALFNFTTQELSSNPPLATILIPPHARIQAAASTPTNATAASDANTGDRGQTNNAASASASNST
In short: (§1)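 IC50 derived from normalized 665/615 TR-FRET signal (Tb anti-pSer641 antibody, streptavidin-d2), read after EDTA stop. Reaction: 1 nM GST-full-length enzyme, 30 min compound pre-incubation, 100 min at ambient temperature in Tris pH 7.5 with 1% DMSO, 200 nM biotinylated primed glycogen synthase peptide, ATP 2 μM to 1 mM.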

[2] = Human liver microsomal stability; assay type: in vitro ADME; conditions: human liver microsomes
Experimental: Stability of compound (5 μL of a 10 mM DMSO solution) in human liver microsomes was tested in duplicate by incubating compound at 1 μM for 60 minutes at 37° C. Compound level at 60 minutes was compared to level at 0 minutes, and percent remaining was calculated. Order by selecting Microsomal Stability in Prometheus, checking boxes for desired species. Assay Controls: microsomes with NADPH without compound-matrix interference. Microsomes plus compound without NADPH—non-enzymatic instability.

[3] = target: T2, GSK3a (GST-full length GSK3a) (Homo sapiens, UniProt P49840); assay: GSK3a TR-FRET kinase inhibition assay; assay type: biochemical
T2 construct: GST-full length GSK3a [SignalChem G08-10G]; purchased SignalChem G08-10G
T2 sequence (P49840 whole entry): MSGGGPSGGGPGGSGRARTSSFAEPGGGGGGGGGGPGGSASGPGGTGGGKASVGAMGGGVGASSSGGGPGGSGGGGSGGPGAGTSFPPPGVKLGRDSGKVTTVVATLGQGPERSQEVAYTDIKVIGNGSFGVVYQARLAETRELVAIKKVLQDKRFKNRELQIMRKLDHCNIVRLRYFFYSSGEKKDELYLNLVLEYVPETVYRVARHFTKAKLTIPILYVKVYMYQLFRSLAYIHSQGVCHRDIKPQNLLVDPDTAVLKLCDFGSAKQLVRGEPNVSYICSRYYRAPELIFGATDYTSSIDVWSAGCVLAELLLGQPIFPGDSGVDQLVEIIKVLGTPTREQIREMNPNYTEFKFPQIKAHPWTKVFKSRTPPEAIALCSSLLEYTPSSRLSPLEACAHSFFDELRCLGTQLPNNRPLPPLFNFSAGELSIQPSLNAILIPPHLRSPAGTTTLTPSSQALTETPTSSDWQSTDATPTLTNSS
In short: as §1

[4] = system: MDR1-MDCK cell monolayers; assay: MDR1/MDCK permeability assay; assay type: in vitro ADME; conditions: for MDCK Permeability (MDR1-MDCK); Mean; Papp(A-B) (10^−6 cm/s): A to B; for MDCK Permeability (MDR1-MDCK); Mean; Papp(B-A) (10^−6 cm/s): B to A
Text: The MDR1/MDCK assay is run at WuXi and Absorption Systems. This assay is used to determine the blood-brain barrier (BBB) penetration potential of a test compound using MDR1-MDCK cell monolayers. Catalog number EA203.
• The percent recovery of the test compound from the Transwell® wells containing MDR1-MDCK cell monolayers • The apparent permeability (Papp) in both directions • The efflux ratio (Papp B to A)/(Papp A to B) • The blood-brain barrier penetration potential classification: • High when • Papp A to B≥3.0×10^−6 cm/s, and efflux<3.0 • Moderate when • Papp A to B≥3.0×10^−6 cm/s, and 10>efflux≥3.0 • Low when either • Papp A to B≥3.0×10^−6 cm/s, and […], or when • Papp A to B<[…].
• Test compound at 5 μM in HBSSg with maximum DMSO concentration not greater than 1%.
• Confluent monolayers of MDR1-MDCK cells, 7 to 11 days old.
• Receiver well with 1% BSA in modified Hanks buffer (HBSSg) • Apical and basolateral side at pH 7.4 • Dose two monolayers in each direction (N=2) • Dose apical side for (A to B) assessment • Dose basolateral side for (B to A) assessment • Sample both apical and basolateral sides at 120 minutes • Determine the concentrations of test compound using a generic LC-MS/MS method with a minimum 4 point calibration curve.
• The quality of the cell monolayer batch is verified using control compounds before monolayers are released for use • The quality of each monolayer used in the assay is verified by a TEER measurement and by calculating the Papp for a control compound.

[5] = 2 μM ATP, read-out: GSK3β TR-FRET 2 μM ATP GMean IC50
[6] = 1 mM ATP, Table 4, read-out: GSK3β TR-FRET 1 mM ATP GMean IC50
[7] = 4 μM ATP, read-out: GSK3α TR-FRET 4 μM ATP GMean IC50
[8] = 1 mM ATP, Table 4, read-out: GSK3α TR-FRET 1 mM ATP GMean IC50

SMILES: CCC1(c2cccc(-c3ccnc(C)c3C)c2)C2=C(CC(C)(C)CC2=O)Nc2ncccc21 (single isomer, unassigned) [147 B]
IC50 [1, 5]: ≤ 100 nM | IC50 [1, 6]: 1000 to 5000 nM | Microsome Stability (Human) (DMPK_BIIB); Mean; in vitro t1/2 ([2]; Table 4): 14 min | IC50 [3, 7]: ≤ 100 nM | IC50 [3, 8]: 100 to 1000 nM | MDCK Permeability (MDR1-MDCK); Mean; Papp(A-B) (10^−6 cm/s) ([4]; Table 4): 8.1 10^−6 cm/s | MDCK Permeability (MDR1-MDCK); Mean; Papp(B-A) (10^−6 cm/s) ([4]; Table 4): 31 10^−6 cm/s | MDCK Permeability (MDR1-MDCK); Mean; P. Ratio(B-A/A-B) Efflux Ratio ([4]; Papp B-A/A-B, Table 4): 3.8

SMILES: CCC1(c2cccc(-c3cn(C)nc3C)c2)C2=C(CC(C)(C)CC2=O)Nc2ncccc21 (single isomer, unassigned) [Compound 1023A]
IC50 [1, 5]: ≤ 100 nM | IC50 [1, 6]: 1000 to 5000 nM | Microsome Stability (Human) (DMPK_BIIB); Mean; in vitro t1/2 ([2]; Table 4): 3.2 min | IC50 [3, 7]: ≤ 100 nM | IC50 [3, 8]: 100 to 1000 nM | MDCK Permeability (MDR1-MDCK); Mean; Papp(A-B) (10^−6 cm/s) ([4]; Table 4): 3.0 10^−6 cm/s | MDCK Permeability (MDR1-MDCK); Mean; Papp(B-A) (10^−6 cm/s) ([4]; Table 4): 27 10^−6 cm/s | MDCK Permeability (MDR1-MDCK); Mean; P. Ratio(B-A/A-B) Efflux Ratio ([4]; Papp B-A/A-B, Table 4): 9.0

SMILES: CCC1(c2ccccc2)C2=C(CC3(CCC3)CC2=O)Nc2ncc(F)cc21 (single isomer, unassigned) [Compound 1008A]
IC50 [1, 5]: ≤ 100 nM | IC50 [1, 6]: 1000 to 5000 nM | Microsome Stability (Human) (DMPK_BIIB); Mean; in vitro t1/2 ([2]; Table 4): 19 min | IC50 [3, 7]: ≤ 100 nM | IC50 [3, 8]: 100 to 1000 nM | MDCK Permeability (MDR1-MDCK); Mean; Papp(A-B) (10^−6 cm/s) ([4]; Table 4): 22 10^−6 cm/s | MDCK Permeability (MDR1-MDCK); Mean; Papp(B-A) (10^−6 cm/s) ([4]; Table 4): 26 10^−6 cm/s | MDCK Permeability (MDR1-MDCK); Mean; P. Ratio(B-A/A-B) Efflux Ratio ([4]; Papp B-A/A-B, Table 4): 1.2

SMILES: CCC1(c2cccc(-c3cn(C)nc3C)c2)C2=C(CC(C)(C)CC2=O)Nc2ncc(F)cc21 (single isomer, unassigned) [Compound 1032B]
IC50 [1, 5]: ≤ 100 nM | Microsome Stability (Human) (DMPK_BIIB); Mean; in vitro t1/2 ([2]; Table 4): 6.4 min | IC50 [3, 7]: ≤ 100 nM | MDCK Permeability (MDR1-MDCK); Mean; Papp(A-B) (10^−6 cm/s) ([4]; Table 4): 2.3 10^−6 cm/s | MDCK Permeability (MDR1-MDCK); Mean; Papp(B-A) (10^−6 cm/s) ([4]; Table 4): 26 10^−6 cm/s | MDCK Permeability (MDR1-MDCK); Mean; P. Ratio(B-A/A-B) Efflux Ratio ([4]; Papp B-A/A-B, Table 4): 11

SMILES: CCC1(c2ccccc2)C2=C(CC3(CCC3)CC2=O)Nc2ncc(F)cc21 (single isomer, unassigned) [Compound 1008B]
IC50 [1, 5]: 1000 to 5000 nM | Microsome Stability (Human) (DMPK_BIIB); Mean; in vitro t1/2 ([2]; Table 4): 1.6 min | IC50 [3, 7]: 1000 to 5000 nM | MDCK Permeability (MDR1-MDCK); Mean; Papp(A-B) (10^−6 cm/s) ([4]; Table 4): 21 10^−6 cm/s | MDCK Permeability (MDR1-MDCK); Mean; Papp(B-A) (10^−6 cm/s) ([4]; Table 4): 31 10^−6 cm/s | MDCK Permeability (MDR1-MDCK); Mean; P. Ratio(B-A/A-B) Efflux Ratio ([4]; Papp B-A/A-B, Table 4): 1.5

SMILES: CCC1(c2ccccc2)C2=C(CC(C)(C)CC2=O)Nc2ncccc21 (single isomer, unassigned) [102 A]
IC50 [1, 5]: ≤ 100 nM | IC50 [1, 6]: 5000 to 20000 nM | Microsome Stability (Human) (DMPK_BIIB); Mean; in vitro t1/2 ([2]; Table 4): 9.1 min | IC50 [3, 7]: ≤ 100 nM | IC50 [3, 8]: 1000 to 5000 nM | MDCK Permeability (MDR1-MDCK); Mean; Papp(A-B) (10^−6 cm/s) ([4]; Table 4): 8.7 10^−6 cm/s | MDCK Permeability (MDR1-MDCK); Mean; Papp(B-A) (10^−6 cm/s) ([4]; Table 4): 26 10^−6 cm/s | MDCK Permeability (MDR1-MDCK); Mean; P. Ratio(B-A/A-B) Efflux Ratio ([4]; Papp B-A/A-B, Table 4): 2.9

Further lines, results first:

IC50 ([1]; 10 μM ATP, read-out: GSK3b 10 μM ATP Average IC50): 5000 to 20000 nM | IC50 ([1]; 100 μM ATP, read-out: GSK3b 100 μM ATP Average IC50): 20000 to 60000 nM | IC50 ([1]; 1 mM ATP, Table 3, read-out: GSK3b TR-FRET 1 mM ATP Average IC50): 5000 to 20000 nM | Microsome Stability (Human) (DMPK_BIIB); Mean; in vitro t1/2 ([2]; Table 3): 11 min | IC50 ([3]; 10 μM ATP, read-out: GSK3a 10 μM ATP Average IC50): 20000 to 60000 nM | MDCK Permeability (MDR1-MDCK); Mean; Papp(A-B) (10^−6 cm/s) ([4]; Table 3): 2.1 10^−6 cm/s | MDCK Permeability (MDR1-MDCK); Mean; Papp(B-A) (10^−6 cm/s) ([4]; Table 3): 1.2 10^−6 cm/s | MIDCK Permeability (MDR1-MDCK); Mean; P. Ratio(B-A/A-B) Efflux Ratio ([4]; Papp B-A/A-B, Table 3): 0.60
SMILES: CC(C)(C)Cc1cnc2c(c1)C(C)(c1ccccc1)C1=C(CC(C)(C)CC1=O)N2 (single isomer, unassigned) [Compound 129A]

IC50 [1, 5]: ≤ 100 nM | IC50 [1, 6]: 1000 to 5000 nM | Microsome Stability (Human) (DMPK_BIIB); Mean; in vitro t1/2 ([2]; Table 4): 2.7 min | IC50 [3, 7]: ≤ 100 nM | IC50 [3, 8]: 100 to 1000 nM | MDCK Permeability (MDR1-MDCK); Mean; Papp(A-B) (10^−6 cm/s) ([4]; Table 4): 2.9 10^−6 cm/s | MDCK Permeability (MDR1-MDCK); Mean; Papp(B-A) (10^−6 cm/s) ([4]; Table 4): 29 10^−6 cm/s | MDCK Permeability (MDR1-MDCK); Mean; P. Ratio(B-A/A-B) Efflux Ratio ([4]; Papp B-A/A-B, Table 4): 9.9
SMILES: CCC1(c2cccc(-c3c(C)nn(C)c3C)c2)C2=C(CC(C)(C)CC2=O)Nc2ncccc21 (single isomer, unassigned) [Compound 150B]
